The source of these data is patent US5892071A, “Cationic transport reagents” (The Reagents of The University of California, priority 1995, dated 1999).

Molecules are shown by their SMILES.

One data set has as its system NIH 3T3 cells. Kind of data set: Luciferase transfection assay (pCMVL plasmid), NIH 3T3 cells. It is filed as cell-based, Murine. The procedure:
NIH 3T3 cells were grown in Dulbecco's modified Eagles medium (DMEM)+10% fetal calf serum. The DNA plasmid pCMVL was prepared by standard methods and used as a 369 ng/μl solution in TE, pH=7.6. The luciferase reporter plasmid pCMVL was prepared at UC Davis, and consists of the P. pyralis luciferase cDNA subcloned into the plasmid pRc/CMV (Invitrogen).
Multilamellar and small sonicated vesicles were prepared by addition of the cationic lipid DOHME together with DOPE, both as solutions in chloroform, to a 5 mL sample vial. The chloroform was removed via rotary evaporation with the water bath set at a constant temperature of 37° C. The resulting thin lipid films were placed under high vacuum overnight to insure that all traces of solvent had been removed. The lipid mixture was resuspended using distilled water ([…] total lipid/1 mL water) and vortex mixed to give a suspension of MLVs. This cloudy suspension was sonicated for fifteen minutes using a bath sonicator until a clear suspension containing SVs was obtained.
Sequential addition of DMEM (with or without 10% fetal calf serum), pCMVL plasmid (for n=4, 4 μg), and liposome formulation into a 2 mL Eppendorf tube gave a total volume of 800 μl. The relative amount of liposome:pCMVL plasmid used was determined by the desired cationic lipid:DNA phosphate charge ratio. The mixing of these substances was followed by thorough vortexing.
Usually, 24 well tissue culture plates containing 5.0×10^4 cells/well rapidly dividing adherent NIH 3T3 cells per well were transfected. The growth media was removed via aspiration and the cells were washed once with 0.5 mL PBS/well. […]
Transfection activity was measured using the luciferase assay. Luciferase assays were performed with a luciferase assay kit (purchased from Analytical Luminescence Laboratories) using a Monolight 2010 luminometer (Analytical Luminescence Laboratories, San Diego, Calif.) according to the manufacturer's instructions. […] Luciferase light emissions from 100 μl of the lysate were measured using the luminometer.

A further data set has as its system transfected cells. Kind of data set: Alamar Blue toxicity assay. It is filed as cell-based. The procedure: Usually, 24 well tissue culture plates containing 5.0×10^4 cells/well rapidly dividing adherent NIH 3T3 cells per well were transfected. The growth media was removed via aspiration and the cells were washed once with 0.5 mL PBS/well. A 200 μl aliquot of liposome-DNAcomplex was added to each well and the cells were allowed to incubate for 4 hr. at 37° C. If desired, at this time, 1 mL of DMEM+10% fetal calf serum/well was added and the cells were allowed to incubate for an additional 48 hr, after which assays of toxicity and/or efficacy were performed. Equivalent procedures were utilized for the DU-145 cells.
Alamar blue (Alamar Biosciences, Sacramento, Calif.), was diluted in cell culture media to 10%, added to cells, and incubated for up to two hours. Reduced dye was quantitated using a CytoFluor 2300 fluorescence plate reader with a 530 nm excitation filter and a 590 nm emission filter. Values expressed represent fluorescence less background. The same transfected cells can subsequently be assayed for reporter protein activity after Alamar Blue analysis.
On the technique in general: The colour change of resazurin is a common sign of viable cells or microbes.

Another data set concerns NIH 3T3 fibroblasts. Kind of data set: Hydrophobic and polar domain transfection analysis of PolyGum derivatives (luciferase specific activity, pGL3I+). The class given is cell-based, Murine. The following applies: for transfection effectiveness ranking among methoxy PolyGum derivatives: 1 microgram plasmid DNA pGL3I+, 48 hours (FIG. 9). The protocol:
Transfection activity was measured using the luciferase assay. Luciferase assays were performed with a luciferase assay kit (purchased from Analytical Luminescence Laboratories) using a Monolight 2010 luminometer (Analytical Luminescence Laboratories, San Diego, Calif.) according to the manufacturer's instructions. The media was removed from the transfected cells via aspiration. 0.5 mL of luciferase buffer/well was added, and the cells were placed on ice for 15 min. Luciferase light emissions from 100 μl of the lysate were measured using the luminometer.
Shown in FIG. 9 are hydrophobic and polar domain transfection results for various synthesized PolyGum derivatives. In the tests, 1.0×10^5 NIH 3T3 fibroblasts were plated 24 hours prior to transfection. Cell lysates were obtained 48 hours after transfection and assayed for luciferase specific activity. The data presented in FIG. 9 corresponds to the ability of the subject cationic lipid to mediated delivery of 1 microgram of plasmid DNA (pGL3I+).

As for `CCCCCCCC/C=C\CCCCCCCC(=O)OC(C[N+](C)(C)CCO)C(C[N+](C)(C)CCO)OC(=O)CCCCCCC/C=C\CCCCCCCC.[I-].[I-]` (centres unmarked) [PolyGum, N,N,N',N'-tetramethyl-N,N'-bis(2-hydroxyethyl)-2,3-di(oleoyloxy)-1,4-butanediaminium iodide], in the data set with NIH 3T3 cells (MLV, serum-free versus 10% calf serum (FIG. 3)), the “effect of serum on PolyGum (MLV) mediated transfection” value is reported as “greatly increased transfection is found with serum-free conditions than in the presence of 10% calf serum”. In the data set on NIH 3T3 cells (SV, serum-free (FIG. 5)), the “efficiency of transfection as mole ratio of DOPE to PolyGum is increased” value is reported as “the efficiency of transfection is lowered in a generally linear fashion”. Also, the “effect of serum on PolyGum mediated transfection under other transfection conditions” value with NIH 3T3 cells (other transfection conditions, with serum) is reported as “little change is noted with serum transfection”. In addition, the “toxicity versus LIPOFECTIN and several other amine containing vesicles” value with transfected cells (PolyGum MLV formulation) and with transfected cells (PolyGum SV formulation) was “less toxicity” each time.

On to `CCCCCCCCCCCCCC(=O)OC(C[N+](C)(C)CCOC)C(C[N+](C)(C)CCOC)OC(=O)CCCCCCCCCCCCC` (centres unmarked) [DM-PG-Me], for which the “transfection efficiency, methoxy versus non-methoxy form” value in the data set with NIH 3T3 fibroblasts (DM-PG-Me versus DM-PG-OH (FIG. 9)) is on record as “more efficient in transfection than the non-methoxy form”.

Take `CCCCCCCCCCCCCCCC(=O)OC(C[N+](C)(C)CCOC)C(C[N+](C)(C)CCOC)OC(=O)CCCCCCCCCCCCCCC` (centres unmarked) [DP-PG-Me]: the “transfection effectiveness ranking among methoxy PolyGum derivatives” value in the data set on NIH 3T3 fibroblasts is given as “most effective in transfection”.

In the case of `CCCCCCCCCCCC(=O)OC(C[N+](C)(C)CCOC)C(C[N+](C)(C)CCOC)OC(=O)CCCCCCCCCCC` (racemic) [DL-PG-Me], the “transfection effectiveness ranking among methoxy PolyGum derivatives” value with NIH 3T3 fibroblasts is recorded as “least effective in transfection”.
